According to PMC3812394 (Biochemistry, 2013):

Target: T1, Chloroperoxidase (CPO) (Leptoxyphium fumago, UniProt P04963)
T1 sequence (P04963 21-319): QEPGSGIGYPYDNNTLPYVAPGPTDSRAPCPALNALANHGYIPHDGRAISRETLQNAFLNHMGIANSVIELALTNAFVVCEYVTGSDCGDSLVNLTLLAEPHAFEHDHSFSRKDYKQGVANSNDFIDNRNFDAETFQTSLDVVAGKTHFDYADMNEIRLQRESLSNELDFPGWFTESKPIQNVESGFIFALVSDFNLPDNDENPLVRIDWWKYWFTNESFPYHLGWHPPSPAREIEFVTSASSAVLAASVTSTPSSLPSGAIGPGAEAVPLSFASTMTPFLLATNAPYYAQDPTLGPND
Assay: paramagnetic NMR T1 relaxation titration with purified CPO
Type: binding

SMILES: c1ccc2[nH]ccc2c1 [indole]
- Kd: ~21 mM
